Data taken from patent US20200289520A1, “COMPOSITION AND METHOD FOR TREATING PERIPHERAL T-CELL LYMPHOMA AND CUTANEOUS T-CELL LYMPHOMA” (Rhizen Pharmaceuticals SA, priority 2017, published 2020).
“Also recorded” adds a separate entry of the source.

How the values were obtained:
[1] = tested on: T-cell lymphoma cell lines (Jurkat, MOLT-4, CCRF-CEM, HuT-78, HuT-102, Sez4 and HH); assay: Anti-proliferative effect in T-cell lymphoma cell lines (MTT assay); format: cell-based; settings: 48-72 h incubation, FIG. 1
Method: Compound (A) was tested across a panel of T-cell lymphoma cell lines (Jurkat, MOLT-4, CCRF-CEM, HuT-78, HuT-102, Sez4 and HH). Cells were plated in 96-well plates and incubated with desired concentrations of Compound A for 48-72 h. At the end of the incubation period, MTT ((3-(4,5-dimethylthiazol-2-yl)-2,5-diphenyltetrazolium bromide)) was added. The plate was placed on a shaker for 5 min to mix the formazan and the optical density at 560 nm was measured on a spectrophotometer. Data were plotted using Graphpad prism for calculation of the IC50 concentrations.

phospho-AKT (Ser473) = assay: Reduction of pAKT in T-cell lymphoma cell lines (Western blotting); format: cell-based; settings: Western blot normalized to actin, FIG. 2
Method: AKT, a serine threonine kinase mediates the downstream effects of PI3K activity and modulates several cell processes including survival and growth. Reduction of pAKT by Compound (A) in representative cell lines was determined by Western blotting using a phospho-AKT (Ser^473) antibody. Band intensity was measured and quantified using ImageJ software and normalized to actin.

caspase-3 = assay: Induction of caspase 3 in T-lymphoma cell lines; format: cell-based; settings: 48 h incubation, fluorimetric; FIG. 3
Method: Cells (Jurkat, MOLT-4, CCRF-CEM, HuT-78 and HuT-102) were incubated with desired concentrations of Compound (A) for 48 h. An equal number of cells per well (0.3×10^6 cells) were used. Increase in apoptosis manifested by an elevation in caspase-3 levels was determined using a Caspase-3 kit from Millipore. Induction of Caspase 3 by Compound A was measured fluorimetrically.

pAKT = pAKT in patient-derived primary malignant T cells (Phosphoflow); format: cell-based, human; settings: CTCL donors n=6, 1.5 h incubation then cytokine activation 30 min; FIG. 4
Method: (§1) The effect of Compound (A) on pAKT in patient-derived primary cells was also studied. Malignant T cells from Cutaneous T-cell Lymphoma (CTCL) patient donors (n=6) were purified using fluorescence-activated cell sorting (FACS) and cultured overnight in RPMI/1% BSA. Cells were incubated with desired concentrations of Compound (A) for 1.5 h followed by activation with a cytokine mixture (20 ng/ml IL2+5 ng/ml IL7+10 ng/ml IL15+10% FBS) for 30 min. pAKT was estimated using Phosphoflow and normalized to total AKT. Data were analyzed using Prism 5.0 software analysis. For apoptosis assays, FACS purified cells from CTCL donors (n=4) were cultured in RPMI/10% FBS+20 ng/ml IL2+5 ng/ml IL7+10 ng/ml IL15 with and without Compound (A), LY294002, or camptothecin for 48 h. Apoptosis was assayed by Annexin V/PI staining.

[2] = tested on: Malignant T cells from Cutaneous T-cell Lymphoma (CTCL) patient donors; assay: Apoptosis by Annexin V/PI staining in purified malignant T-cells from CTCL donors; format: cell-based, human; settings: CTCL donors n=4, 48 h, FIG. 5
Method: as §1

[3] = tested on: MOLT-4 (human T lymphoblast cell line) xenograft; assay: MOLT-4 subcutaneous mouse xenograft model; format: in vivo
Method: The anti-tumor effect of Compound (A) was determined in a MOLT-4 (representing human T lymphoblast cell line) subcutaneous mouse xenograft model. Briefly, 10^6 cells were injected into the flank region. Mice were randomized according to body weight into […] groups of five. A week after tumor cell injection, mice either received the vehicle, oral administration of Compound (A) at 50 mg/kg/BID Compound (A), or administration of cytarabine (Ara-C), over an 18-day study period. At the end of the study period, animals were sacrificed and the tumors harvested.

[4] = tested on: relapsed or refractory T-cell lymphoma; assay: Phase I/Ib study in patients with relapsed or refractory T-cell lymphoma (PTCL and CTCL); format: in vivo, human; settings: for ORR (objective response rate) / ORR (objective response rate), patients: oral BID
Method: This is a Phase I/Ib, 3+3 design study in patients with relapsed or refractory T-cell lymphoma
Compound (A) (tenalisib) was given orally twice a day in 28-day cycles and dose-limiting toxicities (DLTs) were assessed during the first cycle.
Intra-patient dose escalation was allowed following safety of higher doses. • Primary Objectives: The Safety, Pharmacokinetics (PK), Maximum Tolerated Dose (MTD) • Secondary Objectives: Pharmacodynamics, Overall response rate (ORR), Duration of response (DOR)
Histologically confirmed T-cell Non-Hodgkin's lymphoma.
Relapsed after, or refractory to ≥1 prior treatments, and not eligible for transplantation and or approved therapy; ECOG performance status ≤2; patient with measurable or evaluable disease; Adequate organ system function: ANC ≥750/μL; platelets ≥50 K/μL.
Prior therapy that inhibits PI3K/BTK/mTOR were part of exclusion criteria.

Question: What does the source list for `CC[C@H](Nc1ncnc2[nH]cnc12)c1oc2ccccc2c(=O)c1-c1cccc(F)c1` [Compound (A), (S)-2-(1-((9H-purin-6-yl)amino)propyl)-3-(3-fluorophenyl)-4H-chromen-4-one]?
Answer: proliferation / growth of T-lymphoma cell lines [1]: dose-dependent reduction in proliferation; endogenous pAKT expression (phospho-AKT (Ser473)): dose-dependent reduction; caspase-3 induction (caspase-3): dose-dependent increase in caspase-3; inhibition of pAKT in purified malignant T-cells (pAKT): dose-dependent inhibition of pAKT; apoptosis in purified malignant T-cells [2]: dose-dependent increases in apoptosis; tumor growth ([3]; 50 mg/kg BID oral, 18-day study period, vs vehicle, FIG. 6): significantly delayed tumor growth; also recorded: significant delay in tumor growth; tolerability (body weight, adverse effects) ([3]; mice, daily dose of 50 mg/kg): without body weight loss or noticeable adverse effects; CR (complete response) ([4]; All, 58 treated/35 evaluable): (9) %; CR (complete response), patients ([4]; All, 58 treated/35 evaluable): 3 n; DCR (CR + PR + SD) ([4]; All, 58 treated/35 evaluable): 74%; DCR (CR + PR + SD), patients ([4]; All, 58 treated/35 evaluable): 26 n; PD (progressive disease) ([4]; All, 58 treated/35 evaluable): 23%; PD (progressive disease), patients ([4]; All, 58 treated/35 evaluable): 8 n; PR (partial response) ([4]; All, 58 treated/35 evaluable): (37) %; PR (partial response), patients ([4]; All, 58 treated/35 evaluable): 13 n; ORR (objective response rate) ([4]; All, 58 treated/35 evaluable): (46) %; ORR (objective response rate), patients ([4]; All, 58 treated/35 evaluable): 16 n; DCR (CR + PR + SD) ([4]; CTCL, 30 treated/20 evaluable): 80%; DCR (CR + PR + SD), patients ([4]; CTCL, 30 treated/20 evaluable): 16 n; PD (progressive disease) ([4]; CTCL, 30 treated/20 evaluable): 20%; PD (progressive disease), patients ([4]; CTCL, 30 treated/20 evaluable): 4 n; PR (partial response) ([4]; CTCL, 30 treated/20 evaluable): (45) %; PR (partial response), patients ([4]; CTCL, 30 treated/20 evaluable): 9 n; ORR (objective response rate) ([4]; CTCL, 30 treated/20 evaluable): (45) %; ORR (objective response rate), patients ([4]; CTCL, 30 treated/20 evaluable): 9 n; CR (complete response) ([4]; PTCL, 28 treated/15 evaluable): (20) %; CR (complete response), patients ([4]; PTCL, 28 treated/15 evaluable): 3 n; DCR (CR + PR + SD) ([4]; PTCL, 28 treated/15 evaluable): 74%; DCR (CR + PR + SD), patients ([4]; PTCL, 28 treated/15 evaluable): 10 n; PD (progressive disease) ([4]; PTCL, 28 treated/15 evaluable): 27%; PD (progressive disease), patients ([4]; PTCL, 28 treated/15 evaluable): 4 n; PR (partial response) ([4]; PTCL, 28 treated/15 evaluable): (27) %; PR (partial response), patients ([4]; PTCL, 28 treated/15 evaluable): 4 n; ORR (objective response rate) ([4]; PTCL, 28 treated/15 evaluable): (47) %; ORR (objective response rate), patients ([4]; PTCL, 28 treated/15 evaluable): 7 n
